SMILES strings stand for the structures. Structures can show the parent of a compound that is named as a salt.

The test deals with T1, Human fibrinogen receptor (αIIbβ3) (Homo sapiens, UniProt P05106+P08514).
T1 construct: Human fibrinogen receptor (αIIbβ3) was purified from outdated platelets; from tissue; host or cells: outdated human platelets
T1 sequence (P08514 32-887 limits assumed): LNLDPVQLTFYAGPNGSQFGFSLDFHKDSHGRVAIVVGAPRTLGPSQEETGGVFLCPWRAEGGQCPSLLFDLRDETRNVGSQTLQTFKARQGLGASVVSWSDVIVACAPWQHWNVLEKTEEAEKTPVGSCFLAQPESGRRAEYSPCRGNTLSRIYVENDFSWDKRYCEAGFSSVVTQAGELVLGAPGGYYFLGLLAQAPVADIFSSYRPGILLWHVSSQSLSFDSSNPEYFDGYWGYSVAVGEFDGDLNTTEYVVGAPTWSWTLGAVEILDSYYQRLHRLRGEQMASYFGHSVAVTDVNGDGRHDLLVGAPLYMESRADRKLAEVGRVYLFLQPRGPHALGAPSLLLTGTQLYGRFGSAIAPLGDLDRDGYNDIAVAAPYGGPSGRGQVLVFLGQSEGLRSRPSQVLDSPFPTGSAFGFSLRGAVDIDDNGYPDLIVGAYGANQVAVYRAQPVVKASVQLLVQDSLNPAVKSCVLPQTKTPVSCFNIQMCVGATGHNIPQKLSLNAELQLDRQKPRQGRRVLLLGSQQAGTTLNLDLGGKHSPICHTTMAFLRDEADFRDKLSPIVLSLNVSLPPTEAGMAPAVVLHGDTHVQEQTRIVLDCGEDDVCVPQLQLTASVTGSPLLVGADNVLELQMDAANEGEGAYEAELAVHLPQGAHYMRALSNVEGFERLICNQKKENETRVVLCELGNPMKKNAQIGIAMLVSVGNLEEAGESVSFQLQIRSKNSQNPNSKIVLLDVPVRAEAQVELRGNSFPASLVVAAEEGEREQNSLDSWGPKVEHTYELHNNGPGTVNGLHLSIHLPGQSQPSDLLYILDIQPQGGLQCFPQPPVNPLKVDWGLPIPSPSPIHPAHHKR
T1 sequence (P08514 891-1039 limits assumed): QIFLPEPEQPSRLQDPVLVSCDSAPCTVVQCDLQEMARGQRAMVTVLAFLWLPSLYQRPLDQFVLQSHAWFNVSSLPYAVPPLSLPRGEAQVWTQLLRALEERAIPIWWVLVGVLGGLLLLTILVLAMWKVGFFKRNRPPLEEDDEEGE
T1 sequence (P05106 27-788): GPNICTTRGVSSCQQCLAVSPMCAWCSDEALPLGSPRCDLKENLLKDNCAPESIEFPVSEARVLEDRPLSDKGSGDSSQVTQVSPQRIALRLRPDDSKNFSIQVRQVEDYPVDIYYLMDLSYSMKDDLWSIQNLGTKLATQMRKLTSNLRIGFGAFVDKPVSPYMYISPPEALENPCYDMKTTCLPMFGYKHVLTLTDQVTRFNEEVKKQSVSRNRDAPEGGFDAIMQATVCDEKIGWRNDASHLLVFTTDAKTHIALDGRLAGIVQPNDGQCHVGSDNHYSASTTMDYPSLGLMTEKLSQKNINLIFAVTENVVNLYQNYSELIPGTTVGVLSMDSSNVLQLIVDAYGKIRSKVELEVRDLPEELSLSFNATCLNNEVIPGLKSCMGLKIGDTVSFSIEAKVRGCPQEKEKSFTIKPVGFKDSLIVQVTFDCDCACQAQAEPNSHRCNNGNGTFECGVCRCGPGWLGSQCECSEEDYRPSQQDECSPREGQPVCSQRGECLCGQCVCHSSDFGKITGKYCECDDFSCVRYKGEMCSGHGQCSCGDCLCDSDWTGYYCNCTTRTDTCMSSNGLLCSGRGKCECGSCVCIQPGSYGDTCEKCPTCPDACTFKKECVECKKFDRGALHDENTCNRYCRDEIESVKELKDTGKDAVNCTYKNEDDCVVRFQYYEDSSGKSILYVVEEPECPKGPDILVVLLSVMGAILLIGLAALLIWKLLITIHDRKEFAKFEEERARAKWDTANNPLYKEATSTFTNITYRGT
The test is described as follows: Purified IIb/IIIa receptor assay (solid phase receptor assay, competition with biotinylated vitronectin). It is filed as binding. Conditions: read-out: IIb/IIIa IC50. The method in brief: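 Purified platelet αIIbβ3 coated overnight at 4 °C in TBS with 1.0 mM Ca/Mg/Mn, pH 7.4, then BSA-blocked. Compounds (top 1.0×10^−4 M) competed with 1 nM biotinylated vitronectin for 2 h at room temperature. Bound label detected by HRP anti-biotin, A450; values normalized to no-competitor controls, four-parameter fit.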
Consider `O=C(O)CC(NC(=O)CNC(=O)c1cccc(NC(=O)NCc2ccccc2)c1)c1cccnc1` (racemic) [Example 47, (±)β-[[2-[[[3-[[[(phenylmethyl)amino]carbonyl]amino]phenyl]carbonyl]amino]acetyl]amino]pyridine-3-propanoic acid, hydrochloride salt], for which the IC50 stood at 4270 nM.

As for `N=C(N)Nc1cccc(C(=O)NCC(=O)NC(CC(=O)O)c2ccoc2)c1` (racemic) [Example 52, (±)β-[[2-[[[3-[(aminoiminomethyl)amino]phenyl]carbonyl]amino]acetyl]amino]furan-3-propanoic acid, trifluoroacetate salt], the IC50 stood at 139 nM.

Consider `C#C[C@H](CC(=O)O)NC(=O)CNC(=O)c1cccc(NC(=N)N)c1` [Example 45, 3S-[[2-[[[3-[(aminoiminomethyl)amino]phenyl]carbonyl]amino]acetyl]amino]-4-pentynoic acid, hydrochloride salt], for which the IC50 stood at 39.5 nM.

With `O=C(O)CC(NC(=O)CNC(=O)c1cccc(NC2=NCCCCC2)c1)c1cccnc1` (racemic) [Example 12, (±)β-[[2-[[[3-[(3,4,5,6-tetrahydro-2H-azepin-7-yl)amino]phenyl]carbonyl]amino]acetyl]amino]pyridine-3-propanoic acid, bis(trifluoroacetate)salt], the IC50 stood at 595 nM.

On to `NC(=S)Nc1cccc(C(=O)NCC(=O)NC(CC(=O)O)c2cccnc2)c1` (stereo not drawn) [Example 114, β-[[2-[[[3-[(aminothioxomethyl)amino]phenyl]carbonyl]amino]acetyl]amino]pyridine-3-propanoic acid, trifluoroacetate salt], for which the IC50 turned out to be 2940 nM.

Consider `O=C(O)CC(NC(=O)CNC(=O)c1cccc(NC2=NCCCCC2)c1)c1ccc2c(c1)OCO2` (racemic) [Example 14, (±)β-[[2-[[[3-[(3,4,5,6-tetrahydro-2H-azepin-7-yl)amino]phenyl]carbonyl]amino]acetyl]amino]-1,3-benzodioxole-5-propanoic acid, TFA salt], for which the IC50 amounted to 139 nM.

For `N=C(NCc1ccccc1)Nc1cccc(C(=O)NCC(=O)NC(CC(=O)O)c2cccnc2)c1` (racemic) [Example 24, (±)β-[[2-[[[3-[[imino[(phenylmethyl)amino]methyl]amino]phenyl]carbonyl]amino]acetyl]amino]pyridine-3-propanoic acid, bis(trifluoroacetate)salt], the IC50 came out at 58.6 nM.

For `N=C(N)Nc1cccc(C(=O)NCC(=O)NC(CC(=O)O)c2ccccc2)c1` (racemic) [Example 4, (±)β-[[2-[[[3-[(aminoiminomethyl)amino]phenyl]carbonyl]amino]acetyl]amino]benzene-propanoic acid, trifluoroacetate salt], the IC50 is 473 nM.

For `N=C(N)Nc1cccc(C(=O)NCC(=O)NC(CC(=O)O)c2cccs2)c1` (racemic) [Example 61, (±)β-[[2-[[[3-[(aminoiminomethyl)amino]phenyl]carbonyl]amino]acetyl]amino]thiophene-2-propanoic acid, trifluoroacetate salt], the IC50 was found to be 192 nM.

`Cc1ccc(S(=O)(=O)NCC(CC(=O)O)NC(=O)CNC(=O)c2cccc(NC(=N)N)c2)cc1` (stereo not drawn) [Example 65, 3-[[2-[[[3-[(aminoiminomethyl)amino]phenyl]carbonyl]amino]acetyl]amino]-4-[[(4-methylphenyl)sulfonyl]amino]butanoic acid, trifluoroacetate salt]: the IC50 stood at 170 nM.

Take `N=C(N)Nc1cccc(C(=O)NCC(=O)NC(CC(=O)O)c2cc(C(F)(F)F)cc(C(F)(F)F)c2)c1` (racemic) [Example 36, (±)β-[[2-[[[3-[(aminoiminomethyl)amino]phenyl]carbonyl]amino]acetyl]amino]-3,5-bis(trifluoromethyl)benzenepropanoic acid, trifluoroacetate salt]: the IC50 is 1580 nM.

Turning to `Cc1ccc(S(=O)(=O)CCC(CC(=O)O)NC(=O)CNC(=O)c2cccc(NC(=N)N)c2)cc1` (racemic) [Example 67, (±)3-[[2-[[[3-[(aminoiminomethyl)amino]phenyl]carbonyl]amino]acetyl]amino]-5-[(4-methylphenyl)sulfonyl]pentanoic acid, trifluoroacetate salt], the IC50 came out at 92.3 nM.

For `C#C[C@@H](CC(=O)O)NC(=O)CNC(=O)c1cccc(NC(=N)N)c1` [Example 43, 3R-[[2-[[[(3-[(aminoiminomethyl)amino]phenyl]carbonyl]amino]acetyl]amino]-4-pentynoic acid, hydrochloride salt], the IC50 stood at 1640 nM.

As to `N=C(N)Nc1cccc(C(=O)NCC(=O)NC(CC(=O)O)c2ccc3ccccc3c2)c1` (racemic) [Example 56, (±)β-[[2-[[[3-[(aminoiminomethyl)amino]phenyl]carbonyl]amino]acetyl]amino]naphthalene-2-propanoic acid, trifluoroacetate salt], the IC50 was found to be 65.3 nM.

Consider `O=C(O)CC(NC(=O)CNC(=O)c1cccc(NC2=NCCC2)c1)c1cccnc1` (stereo not drawn) [Example 17, β-[[2-[[[3-[(3,4-dihydro-2H-pyrrol-5-yl)amino]phenyl]carbonyl]amino]acetyl]amino]pyridine-3-propanoic acid, bis(trifluoroacetate)salt], for which the IC50 came out at 137 nM.

`NC(=O)Nc1cccc(C(=O)NCC(=O)NC(CC(=O)O)c2cccnc2)c1` (stereo not drawn) [Example 46, β-[[2-[[[3-(aminocarbonylamino)phenyl]carbonyl]amino]acetyl]amino]pyridine-3-propanoic acid, hydrochloride salt]: the IC50 worked out at 1680 nM.

Consider `N=C(N)Nc1cc(C(=O)NCC(=O)NC(CC(=O)O)c2cccnc2)c2ccccc2c1` (racemic) [Example 8, (±)β-[[2-[[[3-[(aminoiminomethyl)amino]naphthalen-1-yl]carbonyl]amino]acetyl]amino]pyridine-3-propanoic acid, bis(trifluoroacetate)salt], for which the IC50 came out at 9.83 nM.

As to `N=C(N)Nc1cccc(C(=O)NCC(=O)NC(CCS(=O)(=O)c2ccccc2C(=O)O)CC(=O)O)c1` (racemic) [60(C), (±)2-[3-[[2-[[[3-[(aminoiminomethyl)amino]phenyl]carbonyl]amino]acetyl]amino]-4-carboxybutyl]sulfonyl]benzoic acid, trifluoroacetate], the IC50 stood at 16.4 nM.

For `Cc1ccc(O)c(C(CC(=O)O)NC(=O)CNC(=O)c2cccc(NC(=N)N)c2)c1` (racemic) [Example 88, (±)β-[[2-[[[3-[(aminoiminomethyl)amino]phenyl]carbonyl]amino]acetyl]amino]-2-hydroxy-5-methylbenzenepropanoic acid, trifluoroacetate salt], the IC50 was 945 nM.

As to `Cc1ccc(C(=O)NCC(=O)NC(CC(=O)O)c2cccnc2)cc1NC(=N)N` (racemic) [Example 83, (±)β-[[2-[[[3-[(aminoiminomethyl)amino]-4-methylphenyl]carbonyl]amino]acetyl]amino]pyridine-3-propanoic acid, bis(trifluoroacetate)salt], the IC50 turned out to be 97.7 nM.

As for `C#C[C@H](CC(=O)O)NC(=O)CNC(=O)c1cccc(NC2=NCCCCC2)c1` [Example 30, βS-[[2-[[[3-[(3,4,5,6-tetrahydro-2H-azepin-7-yl)amino]phenyl]carbonyl]amino]acetyl]amino]-4-pentynoic acid, trifluoroacetate salt], the IC50 came out at 424 nM.

For the molecule `O=C(O)CC(NC(=O)CNC(=O)c1cccc(NC2=NCCCCC2)c1)c1ccccc1` (racemic) [Example 15, (±)β-[[2-[[[3-[(3,4,5,6-tetrahydro-2H-azepin-7-yl)amino]phenyl]carbonyl]amino]acetyl]amino]benzenepropanoic acid, trifluoroacetate salt], the IC50 stood at 3830 nM.

As to `Cc1ccc(SCCC(CC(=O)O)NC(=O)CNC(=O)c2cccc(NC(=N)N)c2)cc1` (racemic) [Example 66, (±)3-[[2-[[[3-[(aminoiminomethyl)amino]phenyl]carbonyl]amino]acetyl]amino]-5-[(4-methylphenyl)thio]pentanoic acid, trifluoroacetate salt], the IC50 is 73.7 nM.

As to `N=C(N)Nc1cccc(C(=O)NCC(=O)N[C@@H](CC(=O)O)CS(=O)(=O)c2ccccc2C(=O)O)c1` [Example 71, 2-[[2S-[[2-[[[3-[(aminoiminomethyl)amino]phenyl]carbonyl]amino]acetyl]amino]-2-(carboxymethyl)ethyl]sulfonyl]benzoic acid, TFA salt], the IC50 came out at 202 nM.

Regarding `N=C(N)Nc1cccc(C(=O)NCC(=O)NC(CC(=O)O)c2cnc3ccccc3c2)c1` (stereo not drawn) [Example 99, β-[[2-[[[3-[(aminoiminomethyl)amino]phenyl]carbonyl]amino]acetyl]amino]quinoline-3-propanoic acid, bis(trifluoroacetate)salt], the IC50 came to 1.89 nM.

With `O=C(O)CC(NC(=O)CNC(=O)c1cccc(NC2=NCCN2)c1)c1cccnc1` (racemic) [Example 10, (±)β-[[2-[[[3-[(4,5-dihydro-1H-imidazol-2-yl)amino]phenyl]carbonyl]amino]acetyl]amino]pyridine-3-propanoic acid, bis(trifluoroacetate)salt], the IC50 came to 54.4 nM.

As for `N=C(N)Nc1cccc(C(=O)NCC(=O)NC(CC(=O)O)c2ccsc2)c1` (racemic) [Example 59, (±)β-[[2-[[[3-[(aminoiminomethyl)amino]phenyl]carbonyl]amino]acetyl]amino]thiophene-3-propanoic acid, trifluoroacetate salt], the IC50 came out at 172 nM.

The record behind these values is patent publication US6831199B1, “Pyrimidine compounds and derivatives thereof” (G. D. Searle & Co., priority 1995, dated 2004).
